“Also recorded” adds a separate entry of the source. Peptide text beside a SMILES is read from it. * marks the point of attachment. Cbz = O=C(OCc1ccccc1)*; CH2F = FC*

Results on eight molecules are retold here after US20250161399A1, “TARGETING SLC46A2-MEDIATED MUROPEPTIDE TRANSPORT TO TREAT PSORIASIS” (University of Massachusetts, priority 2021, published 2025).

Assay [1] deals with mouse skin (NOD1/NOD2 response). The assay can be described thus: neutrophil recruitment to pinnae after intradermal injection. It counts as in vivo. The settings on record: for neutrophil recruitment response in Slc46a2-deficient mice compared to WT: Tri-DAP 25 μM, C12-iE-DAP 20 μM. Here is the method:
[…] After 3 h, both ears were individually harvested, and stored in ice cold PBS on ice until further processing for flow cytometry staining.
Pinnae were cut into small pieces and incubated for 30 min at 37° C. in a solution of 1 mg/ml collagenase (Sigma) in DMEM media containing 10% FBS. Ice-cold FACS buffer (2% FBS in PBS) was added to skin samples to stop the reaction. Then samples were placed on 70 μm cell strainers and ground using a cell strainer pestle to create a single cell suspension. Cells were spun at 180 g for 5 min at 4° C. and resuspended in FACS buffer.
(§1) 1×10^6 cells were stained with F4/80-PE/Cy7 (1:200), CD45-alexaflour700 (1:200) and Gr1-PE (1:200) for 30 min on ice in the dark. Samples were washed three times with FACS buffer and analyzed with a Cytek Aurora cytometer. Results were analyzed with FlowJo software (Tree Star, USA).

Assay [2] relates to primary mouse keratinocytes. The assay can be described thus: keratinocyte cell permeabilization assay (Sytox dye uptake, live cell imaging). The following applies: WT keratinocytes, 30 μM iE-DAP, 24 h; MTX increasing concentration, zVAD-fmk 10 μM, DMF 50 μM. The assay is classed as cell-based. Here is the method: Adult (6-8 weeks) mouse keratinocytes were isolated from male or female animals using protocols described previously (57). In brief, tail skin was incubated in 1 mg/ml Dispase II (Roche) overnight at 4° C. The epidermis was physically removed from the dermis with tweezers following Dispase II treatment, subsequently digested with TrypLE (Thermo) for 20 min at room temperature, and keratinocytes were detached by vigorously shaking in EpiLife culture medium and filtered with a 70 μm strainer (Fisher scientific). Isolated cells were seeded at a density of 10^5 cells/cm^2 cultured with EpiLife (Gibco) in 12-well plates precoated with coating matrix (Gibco) and used between 3 and 5 days after isolation.
For cell permeabilization assays, 1×10^5 keratinocytes/well were seeded in a 96-well plate (Denville Scientific Inc.). After reaching 80% confluency, 30 μM iE-DAP was added to culture media with 1 nM Sytox red dye (Thermo) and 0.2 nM hoechst stain (Thermo). Plates were then cultured in a Cytation5 (BioTek) live imaging device and each well was imaged every 30 min for 24 hours. For analysis, Gen5 software were used to count the total number of Hoechst-stained nuclei and the total number of permeabilized cells were quantified as the number of Sytox positive nuclei. The Percentage of Sytox^+ cells was then calculated and plotted.

The subject of assay [3] is mouse peritoneum (NOD1/NOD2 response). Kind of assay: neutrophil recruitment to the peritoneum after intraperitoneal injection. It counts as in vivo. The following applies: 3 h, iE-DAP 30 μM, MDP 10 μM. Here is the method: For peritoneal cell extraction, animals were euthanized and cells from peritoneal cavity were isolated by peritoneal lavage (58). Harvested cell suspensions were centrifuged at 300 g for 5 min at 4° C. and resuspended in FACS buffer.
as §1

Assay [4] concerns psoriasis-like inflammation on mouse pinnae. Kind of assay: IMQ model of psoriasis-like dermatitis (ear thickness, H&E histology). It counts as in vivo. The settings on record: 7-day course of topical IMQ. Here is the method:
Pinnae were harvested 3 h after DAP-muropeptide administration or 7 d after topical application of IMQ and fixed in PBS containing 10% formalin. Paraffin-embedded sections were cut at […], stained with H&E, and imaged by light microscopy.
The induction of psoriasis-like inflammation on mouse pinnae was done as previously described (60). In brief, mice were treated daily for up to 6 d with 5 mg 5% IMQ cream topically applied on one pinna, while the other pinnae were treated with a similar amount of Vaseline, as vehicle control. Ear thickness was measured daily using a digital caliper. The change in ear thickness over time was reported as the difference related to the first day of topical application. For the bacterial assisted psoriasis model, 5 mg 5% IMQ cream was topically applied on one pinna, while the contralateral pinna was treated with a similar amount of Vaseline for 3 days, and then 10^7 CFU of C. accolens, in 50% glycerol, was topically applied daily to both pinnae. Ear thickness was measured daily using a digital caliper. C. accolens, originally from ATCC, was provided by J. Kang and grown as described (61).

Assay [5] deals with HSE dermal fibroblasts (CXCL8). Kind of assay: CXCL8 induction in Human Skin Equivalents (HSE) skin organoids. The assay is classed as cell-based. The following applies: concomitant treatment with iE-DAP.
For assay [6], the system named is primary dermal fibroblasts. Kind of assay: CXCL1 (KC) ELISA from primary dermal fibroblasts. The settings on record: iE-DAP 30 μM or IL-1α 10 ng/ml, 24 hrs. The assay is classed as cell-based, mouse. Here is the method:
Mouse dermal fibroblasts were isolated as described herein. In brief, mouse pinnae were incubated on a table shaker (200 rpm) in a collagenase D-pronase solution [2.5 mg/ml collagenase-D (Sigma), 20 mg/ml pronase (Sigma) diluted in 1M Tris, pH 8.0 and containing 1 μM EDTA (Sigma)] for 90 min at 37° C. Fibroblasts were then isolated by pressing digested skin through a 70 μm cell strainer, and cells were collected and cultured in RPMI 1640 medium with 10% FBS, 50 μM 2-mercaptoethanol, 100 μM asparagine, 2 mM glutamine, 1% penicillin-streptomycin for 2-4 passages before stimulating with immune elicitors, and/or harvesting media or cells.
For cytokine ELISAs from dermal fibroblast, cells were challenged with IL-1α (10 ng/ml) or 30 μM iE-DAP for 24 h, and media was collected and processed for ELISA as described above.

[7] abbreviates: intradermal, 3 h, TCT 8 μM, iE-DAP 30 μM, MDP 10 μM.

As for tracheal cytotoxin [TCT], in assay [1] (intradermal 10 μl, TCT 8 μM, LPS 10 μg/ml, iE-DAP 30 μM, 1 to 24 h), the “neutrophil / leukocyte recruitment to the skin in WT mice” value was “rapid and robust; also recorded: robust and rapid”. Further, the “time of peak leukocyte recruitment” value in assay [1] (intradermal TCT, monitored between 1 and 24 h) came out at 3 h. Further, the “neutrophil recruitment response in Slc46a2-deficient mice compared to WT” value (“neutrophil recruitment response … compared to WT” for short) in assay [1] (setting [7]) is “significantly reduced”.
In the case of `COC(=O)C[C@H](NC(=O)[C@H](C)NC(=O)[C@@H](NC(=O)OCc1ccccc1)C(C)C)C(=O)CF` [zVAD-FMK] (Cbz-Val-Ala-Asp(OMe)-CH2F), the “inhibition of DAP-muropeptide triggered keratinocyte permeabilization (Sytox uptake)” value in assay [2] was “prevented”.
Turning to `CC(=O)N[C@H]1C(O)O[C@H](CO)[C@@H](O)[C@@H]1O[C@H](C)C(=O)N[C@@H](C)C(=O)N[C@H](CCC(=O)O)C(N)=O` (mixture of isomers) [MDP, muramyl dipeptide], the “neutrophil recruitment response in Slc46a3−/− mice” value in assay [1] (intradermal, 3 h, MDP 10 μM) is “significantly defective”. The “neutrophil recruitment response … compared to WT” value in assay [1] (setting [7]) is “responded normally”. Moreover, in assay [3], the “neutrophil recruitment response in Slc46a2−/− mice” value is on record as “responded like wild-type” and the “neutrophil recruitment response in Slc46a3−/− mice” value was “failing to respond”.
As to `CC(C)Cn1cnc2c(N)nc3ccccc3c21` [IMQ, imiquimod], in assay [4], the “inflammation in Slc46a2- and Nod1-deficient mice” value is given as “markedly resistant”. The “inflammation in WT mice (ear thickness, H&E histology)” value in assay [4] (WT mice) was “expected psoriatic-like inflammation”.
In the case of `C[C@H](N)C(=O)N[C@H](CCC(=O)NC(CCCC(N)C(=O)O)C(=O)O)C(=O)O` (stereo partly drawn) [Tri-DAP], the “neutrophil recruitment response … compared to WT” value in assay [1] (setting [7]) is given as “significantly reduced”.
Still for that read-out and setting: as for `CCCCCCCCCCCC(=O)N[C@H](CCC(=O)NC(CCCC(N)C(=O)O)C(=O)O)C(=O)O` (stereo partly drawn) [C12-iE-DAP], the entry is “not significantly changed”.
As for IL-1Ra: recombinant IL-1R antagonist, the “effect on iE-DAP induced CXCL8 in HSE dermis” value in assay [5] was “prevented”; in assay [5] (listed as IL-IRA) it was “blocked”.

B1: IL-1α: cytokine used to challenge dermal fibroblasts (10 ng/ml) (protein, UniProt P01583 113-271, looked up)
Interleukin-1 alpha: SAPFSFLSNVKYNFMRIIKYEFILNDALNQSIIRANDQYLTAAALHNLDEAVKFDMGAYKSSKDDAKITVILRISKTQLYVTAQDEDQPVLLKEMPEIPKTITGSETNLLFFWETHGTKNYFTSVAHPNLFIATKQDYWVCLAGGPPSITDFQILENQA
Regarding B1, the “CXCL1 (KC) response of primary dermal fibroblasts” value in assay [6] is “induced”.
